In patent US12286424B2, “Small molecule inhibitors of galectin-3” (BRISTOL-MYERS SQUIBB COMPANY, priority 2020, dated 2025):
pIC50: −log10 of the molar value.

biological target: T1, hGalectin-3 (Homo sapiens, UniProt P17931); assay: Gal-3 ELISA assay (hGalectin-3 neutralization binding to asialofetuin); conditions: Table 1; read-out: hGal-3 IC50
T1 construct: made in house
T1 sequence (P17931 whole entry): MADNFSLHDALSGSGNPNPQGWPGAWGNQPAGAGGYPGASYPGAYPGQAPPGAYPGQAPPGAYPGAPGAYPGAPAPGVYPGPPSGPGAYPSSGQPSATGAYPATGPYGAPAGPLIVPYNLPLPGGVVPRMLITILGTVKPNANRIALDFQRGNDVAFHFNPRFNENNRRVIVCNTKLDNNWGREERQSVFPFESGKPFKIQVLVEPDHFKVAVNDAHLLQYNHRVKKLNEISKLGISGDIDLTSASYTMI

Compound	pIC50
COc1cc(N2CCN(C(=O)[C@@H]3O[C@H](CO)[C@H](O)[C@H](n4cc(-c5cccc(F)c5)nn4)[C@H]3O)CC2)ccc1O [Example 5]	6.44
O=C([C@@H]1O[C@H](CO)[C@H](O)[C@H](n2cc(-c3cccc(F)c3)nn2)[C@H]1O)N1CCN(c2ccc(O)cn2)CC1 [Example 2]	6.40

same assay, conditions: Table 3; read-out: hGal-3 IC50

Compound	pIC50
COc1ccc(OC)c(N2CC3CC2CN3C(=O)C2OC(CO)C(O)C(n3cc(-c4cccc(F)c4)nn3)C2O)c1 (stereo not shown) [Example 21]	6.02
O=C([C@@H]1O[C@H](CO)[C@H](O)[C@H](n2cc(-c3cccc(F)c3)nn2)[C@H]1O)N1C[C@@H]2C[C@H]1CN2c1ccc2c(c1)OCO2 [Example 20]	6.60
COc1ccc(N2CC3CC2CN3C(=O)C2OC(CO)C(O)C(n3cc(-c4cccc(F)c4)nn3)C2O)cc1OC (stereo not shown) [Example 22]	6.28

same assay, conditions: biotin-tagged hGalectin-3 15 nM, ASF-coated plate; read-out: hGal3 IC50

Compound	pIC50
CS(=O)(=O)Nc1ccc(N2C[C@@H]3C[C@H]2CN3C(=O)[C@@H]2O[C@H](CO)[C@H](O)[C@H](n3cc(-c4cccc(F)c4)nn3)[C@H]2O)nc1 [Example 41, N-(6-((1S,4S)-5-((2R,3R,4S,5R,6R)-4-(4-(3-fluorophenyl)-1H-1,2,3-triazol-1-yl)-3,5-dihydroxy-6-(hydroxymethyl)tetrahydro-2H-pyran-2-carbonyl)-2,5-diazabicyclo[2.2.1]heptan-2-yl)pyridin-3-yl)methanesulfonamide]	6.14
O=C([C@@H]1O[C@H](CO)[C@H](O)[C@H](n2cc(-c3cccc(F)c3)nn2)[C@H]1O)N1CCN(c2ccc(O)cc2)CC1 [Example 1, ((2R, 3R, 4S, 5R, 6R)-4-(4-(3-fluorophenyl)-1H-1,2,3-triazol-1-yl)-3,5-dihydroxy-6-(hydroxymethyl)tetrahydro-2H-pyran-2-yl)(4-(4-hydroxyphenyl)piperazin-1-yl) methanone]	6.46
O=C([C@@H]1O[C@H](CO)[C@H](O)[C@H](n2cc(-c3cccc(F)c3)nn2)[C@H]1O)N1CCN(c2ccc(O)cc2)CC1CO (single isomer, unassigned) [Example 34b]	6.35
COc1ccc(N2C[C@@H]3C[C@H]2CN3C(=O)C[C@@H]2O[C@H](CO)[C@H](O)[C@H](n3cc(-c4cccc(F)c4)nn3)[C@H]2O)cc1 [Example 27, 2-((2S,3R,4R,5R,6R)-4-(4-(3-fluorophenyl)-1H-1,2,3-triazol-1-yl)-3,5-dihydroxy-6-(hydroxymethyl)tetrahydro-2H-pyran-2-yl)-1-((1S,4S)-5-(4-methoxyphenyl)-2,5-diazabicyclo[2.2.1]heptan-2-yl)ethanone]	6.46
CO[C@@H]1[C@@H](n2cc(-c3cccc(F)c3)nn2)[C@@H](O)[C@@H](CO)O[C@H]1C(=O)N1CCN(c2ccc(O)cc2)CC1 [Example 13, ((2R,3R,4S,5R,6R)-4-(4-(3-fluorophenyl)-1H-1,2,3-triazol-1-yl)-5-hydroxy-6-(hydroxymethyl)-3-methoxytetrahydro-2H-pyran-2-yl)(4-(4-hydroxyphenyl)piperazin-1-yl)methanone]	6.82
OCC1CN(c2ccc(O)cc2)CCN1C[C@@H]1O[C@H](CO)[C@H](O)[C@H](n2cc(-c3cccc(F)c3)nn2)[C@H]1O (single isomer, unassigned) [Example 39a]	6.51
COc1ccc(N2C[C@@H]3C[C@H]2CN3C(=O)[C@@H]2O[C@H](CO)[C@H](O)[C@H](n3cc(-c4cccc(F)c4)nn3)[C@H]2O)cc1 [Example 19, ((2R,3R,4S,5R,6R)-4-(4-(3-fluorophenyl)-1H-1,2,3-triazol-1-yl)-3,5-dihydroxy-6-(hydroxymethyl)tetrahydro-2H-pyran-2-yl)((1S,4S)-5-(4-methoxyphenyl)-2,5-diazabicyclo[2.2.1]heptan-2-yl)methanone]	6.60
CS(=O)(=O)Nc1ccc(N2C[C@@H]3C[C@H]2CN3C(=O)[C@@H]2O[C@H](CO)[C@H](O)[C@H](n3cc(-c4cccc(F)c4)nn3)[C@H]2O)cn1 [Example 42]	6.38
C[C@@H]1CN(c2ccc(O)cc2)[C@@H](C)CN1C(=O)[C@@H]1O[C@H](CO)[C@H](O)[C@H](n2cc(-c3cccc(F)c3)nn2)[C@H]1O (single isomer, unassigned) [Example 37a]	6.46
CS(=O)(=O)Nc1ccc(N2CCN(C(=O)[C@@H]3O[C@H](CO)[C@H](O)[C@H](n4cc(-c5cccc(F)c5)nn4)[C@H]3O)CC2)nc1 [Example 8, N-(6-(4-((2R,3R,4S,5R,6R)-4-(4-(3-fluorophenyl)-1H-1,2,3-triazol-1-yl)-3,5-dihydroxy-6-(hydroxymethyl)tetrahydro-2H-pyran-2-carbonyl)piperazin-1-yl)pyridin-3-yl)methanesulfonamide]	6.12
O=C([C@@H]1O[C@H](CO)[C@H](O)[C@H](n2cc(-c3cccc(F)c3)nn2)[C@H]1O)N1CCCN(c2ccc(O)cc2)CC1 [Example 33, ((2R, 3R, 4S, 5R, 6R)-4-(4-(3-fluorophenyl)-1H-1,2,3-triazol-1-yl)-3,5-dihydroxy-6-(hydroxymethyl)tetrahydro-2H-pyran-2-yl)(4-(4-hydroxyphenyl)-1,4-diazepan-1-yl)methanone]	6.32
COC(=O)Nc1ccc(N2C[C@@H]3C[C@H]2CN3C(=O)[C@@H]2O[C@H](CO)[C@H](O)[C@H](n3cc(-c4cccc(F)c4)nn3)[C@H]2O)cc1 [Example 23, methyl (4-((1S,4S)-5-((2R,3R,4S,5R,6R)-4-(4-(3-fluorophenyl)-1H-1,2,3-triazol-1-yl)-3,5-dihydroxy-6-(hydroxymethyl)tetrahydro-2H-pyran-2-carbonyl)-2,5-diazabicyclo[2.2.1]heptan-2-yl)phenyl)carbamate]	6.23
O=C(C[C@@H]1O[C@H](CO)[C@H](O)[C@H](n2cc(-c3cccc(F)c3)nn2)[C@H]1O)N1C[C@@H]2C[C@H]1CN2c1ccc2c(c1)OCO2 [Example 28]	6.24
O=C([C@@H]1O[C@H](CO)[C@H](O)[C@H](n2cc(-c3cccc(F)c3)nn2)[C@H]1O)N1CCN(c2ccc(O)cn2)CC1 [Example 2]	6.57
O=C(Nc1ccc(O)cc1)N1CCN(C(=O)[C@@H]2O[C@H](CO)[C@H](O)[C@H](n3cc(-c4cccc(F)c4)nn3)[C@H]2O)CC1 [Example 18, 4-((2R,3R,4S,5R,6R)-4-(4-(3-fluorophenyl)-1H-1,2,3-triazol-1-yl)-3,5-dihydroxy-6-(hydroxymethyl)tetrahydro-2H-pyran-2-carbonyl)-N-(4-hydroxyphenyl)piperazine-1-carboxamide]	6.60
O=C([C@@H]1O[C@H](CO)[C@H](O)[C@H](n2cc(-c3cccc(F)c3)nn2)[C@H]1O)N1CCN(c2ccc3[nH]c(=O)[nH]c3c2)CC1 [Example 9, 5-(4-((2R,3R,4S,5R,6R)-4-(4-(3-fluorophenyl)-1H-1,2,3-triazol-1-yl)-3,5-dihydroxy-6-(hydroxymethyl)tetrahydro-2H-pyran-2-carbonyl)piperazin-1-yl)-1H-benzo[d]imidazol-2(3H)-one]	6.41
OCC1CN(C[C@@H]2O[C@H](CO)[C@H](O)[C@H](n3cc(-c4cccc(F)c4)nn3)[C@H]2O)CCN1c1ccc(O)cc1 (single isomer, unassigned) [Example 40a]	6.03
